Laboratory results taken from article PMC5010535 (Cancer research, 2016).

Assays:
LNCaP-abl cells [1] = assay: Cell proliferation assay, LNCaP-abl cells; assay type: cell-based; details: 72 hours
LNCaP-abl cells [2] = assay: Clonogenic assay, LNCaP-abl cells; assay type: cell-based; details: 10 μM, 10 days
in vitro [3] = details: rat, liver microsomes
UBE2C = UBE2C mRNA expression in LNCaP-95 cells; assay type: cell-based; details: 10 μM, 48 hours
in vitro [4] = details: liver microsomes

Question: With `CNC(=O)c1ccc(N2C(=S)N(c3cnc(C#N)c(C(F)(F)F)c3)C(=O)C23CCC3)cc1F` [ARN509] as the compound, how does the “effect on LNCaP-abl cellular proliferation” value (LNCaP-abl cells [1]; 10 μM) read?
Answer: not growth inhibited

Question: And the “effect on colony formation” value (LNCaP-abl cells [2])?
Answer: Neither enzalutamide nor ARN509 could effectively prevent colony formation

Question: For `CC(C)NCC(O)COc1cccc2ccccc12` (stereo not shown) [Propranolol, propranolol], which remaining at 1 h, 1.09 µM (in vitro [3]) is on record?
Answer: 58.7%

Question: What does the source list for `CNC(=O)c1ccc(N2C(=S)N(c3ccc(C#N)c(C(F)(F)F)c3)C(=O)C2(C)C)cc1F` [enzalutamide]?
Answer: effect on colony formation (LNCaP-abl cells [2]): Neither enzalutamide nor ARN509 could effectively prevent colony formation; UBE2C mRNA expression (UBE2C): significantly increased UBE2C mRNA expression

Question: Which “EC50 (concentration required to inhibit the proliferation by 50%)” value (LNCaP-abl cells [1]; highest concentration tested 100 μM) does the source give for `C#C[C@]1(O)CC[C@H]2[C@@H]3CCC4=CC(=O)CC[C@]4(C)[C@H]3CC[C@@]21C` [ethisterone] here?
Answer: failed to reach 50% inhibition at the maximal concentration tested

Question: Which half-life at 1.09 µM (in vitro [4]) does the source give for `CCOc1ccc(NC(C)=O)cc1` [phenacetin] here?
Answer: ~1.33 h
